Experimental data as given in the NIST ThermoML archive (doi:10.1016/j.tca.2012.11.004).
Numbers after ± are expanded uncertainties.

Experiments:
[1] = 298.15 K; 101.33 kPa; Liquid; Vibrating tube method
[2] = refractive index (Na D-line) (dimensionless); conditions: 101.33 kPa, Liquid, Standard Abbe refractometry

| Structure (SMILES) | mass density [1] [kg/m3] | refractive index ([2]; 298.1 K) | refractive index ([2]; 298.15 K) |
| --- | --- | --- | --- |
| CC(=O)N(C)C [N,N-dimethylethanamide] | 936.38 ± 0.08 | 1.4358 ± 0.0007 |  |
| CNC=O [N-methylformamide] | 998.94 ± 0.23 |  | 1.4302 ± 0.0007 |
| CN(C)C=O [dimethylformamide] | 943.9 ± 0.11 |  | 1.4281 ± 0.0007 |
| NC=O [formamide] | 1129.16 ± 0.16 |  | 1.4465 ± 0.0007 |
